The values that follow come from PMC8252455, “Prediction of a clinically effective dose of THY1773, a novel V 1B receptor antagonist, based on preclinical data” (Biopharmaceutics & Drug Disposition, 2021).

Molecules are shown by their SMILES. Marks after values point to notes of the source that are not given here.

The target in data set [1] is T1, rat anterior pituitary membrane V1B receptor (Rattus norvegicus, UniProt P48974).
T1 construct: rat anterior pituitary membrane V1B receptor; from tissue; host or cells: rat anterior pituitary membranes
T1 sequence (P48974 1-425): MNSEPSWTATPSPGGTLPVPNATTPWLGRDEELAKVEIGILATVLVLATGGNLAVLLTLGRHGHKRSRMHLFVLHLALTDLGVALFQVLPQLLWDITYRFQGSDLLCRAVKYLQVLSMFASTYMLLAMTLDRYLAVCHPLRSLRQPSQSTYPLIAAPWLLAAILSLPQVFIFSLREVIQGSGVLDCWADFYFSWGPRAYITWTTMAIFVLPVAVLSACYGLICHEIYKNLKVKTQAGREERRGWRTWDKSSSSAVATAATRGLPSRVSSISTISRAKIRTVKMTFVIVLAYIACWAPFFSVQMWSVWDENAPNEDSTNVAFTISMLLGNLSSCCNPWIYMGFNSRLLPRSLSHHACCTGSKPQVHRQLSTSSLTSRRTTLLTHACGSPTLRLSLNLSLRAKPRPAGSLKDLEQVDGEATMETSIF
Kind of data set: In vitro binding, rat anterior pituitary membrane V1B receptor. To be noted: unpublished data.

The nature of data set [2]: Metabolic stability in dog liver microsomes. Format: in vitro ADME. Conditions: 1 μmol/L. Here is the method: The oxidative metabolism of THY1773 was evaluated in rat and dog liver microsomes. THY1773 (1 μmol/L) was incubated with pooled liver microsomes (0.25 mg protein/ml) in sodium–potassium phosphate buffer (pH 7.4) consisting of 100 mmol/L sodium phosphate, 100 mmol/L potassium chloride, 2.5 mmol/L magnesium chloride (MgCl2), 1.5 mmol/L glucose‐6‐phosphate (G‐6‐P), and 0.18 units/ml G‐6‐P dehydrogenase (G‐6‐PDH). The reactions were initiated by the addition of β‐nicotinamide–adenine dinucleotide phosphate, oxidized form (NADP^+, 0.16 mmol/L), and incubated for 10, 20, 30, 40, 50, and 60 min. […] The intrinsic clearance (CLint) was calculated by the substrate depletion method described by Naritomi et al. (2001).
Since the CLliver was underestimated in rats and dogs from CLint in liver microsomes, the ratio of observed in vivo CLint and predicted CLint was calculated as the empirical scaling factor (ESF) for the extrapolation of CLliver from in vitro data. […] The total plasma clearance (CLtotal) was calculated by Equation (4): (4) CLtotal=QH×fu×(CLint/fu,mic)/QH+(fu/Rb)×(CLint/fu,mic)+CLrenal where QH is hepatic blood flow, fu is the free fraction in plasma, fu,mic is the fraction unbound in HLMs, Rb is blood‐to‐plasma ratio, and CLrenal is renal clearance. The fu,mic value was calculated using the Simcyp population based simulator (Version 16 R1; Simcyp Ltd.). […]
In general terms: Liver microsomes are vesicles of endoplasmic reticulum, rich in cytochrome P450 enzymes.

In data set [3] the test system is CYP3A. Description: Reaction phenotyping in HLMs with ketoconazole. The data set is classed as in vitro ADME, human. Here is the method: Reaction phenotyping using cDNA expressed recombinant human CYP isoforms, CYP1A2, CYP2B6, CYP2C8, CYP2C9, CYP2C19, CYP2D6, and CYP3A4, was conducted. Each recombinant enzyme (100 pmol/ml) in potassium phosphate buffer (pH 7.4; 100 mmol/L for CYP3A4, 50 mmol/L for the others) was preincubated with [^3H]THY1773 (10 μmol/L) at 37°C for 5 min. The reactions were initiated by the addition of NADPH‐generating system (1 mmol/L NADP^+, 5 mmol/L G‐6‐P, 1 unit/ml G‐6‐PDH, and 5 mmol/L MgCl2) and incubated for 0 or 60 min. The reactions were terminated by the addition of an equal volume of acetonitrile/methanol (9:1, vol/vol), followed by centrifugation at 1650 × g for 10 min at 4°C. An aliquot of the supernatant was subjected to an Agilent 1200 HPLC system (Agilent Technologies, Inc.) equipped with a radiochemical flow detector (Radiomatic 625TR; Perkin Elmer, Inc.), and formation of metabolites was evaluated. […] The CLint was calculated by the method as described previously under metabolic stability in animal liver microsomes, and the fraction metabolized (fm) was calculated by Equation (1): (1) fm=1−(CLint, with inh/CLint) where CLint is intrinsic clearance without specific inhibitor and CLint,with inh is intrinsic clearance in the presence of specific inhibitor.

The test system of data set [4] is anterior pituitary V1B receptor. The arrangement: method as in Kamiya et al., 2020. Conditions: rats; ref Kamiya et al., 2020; cited from earlier work.
Data set [5] addresses T2, human V1B receptor (Homo sapiens, UniProt P47901).
T2 construct: expressed in transfected cells; host or cells: 1321-N1 cells (membranes)
T2 sequence (P47901 1-424): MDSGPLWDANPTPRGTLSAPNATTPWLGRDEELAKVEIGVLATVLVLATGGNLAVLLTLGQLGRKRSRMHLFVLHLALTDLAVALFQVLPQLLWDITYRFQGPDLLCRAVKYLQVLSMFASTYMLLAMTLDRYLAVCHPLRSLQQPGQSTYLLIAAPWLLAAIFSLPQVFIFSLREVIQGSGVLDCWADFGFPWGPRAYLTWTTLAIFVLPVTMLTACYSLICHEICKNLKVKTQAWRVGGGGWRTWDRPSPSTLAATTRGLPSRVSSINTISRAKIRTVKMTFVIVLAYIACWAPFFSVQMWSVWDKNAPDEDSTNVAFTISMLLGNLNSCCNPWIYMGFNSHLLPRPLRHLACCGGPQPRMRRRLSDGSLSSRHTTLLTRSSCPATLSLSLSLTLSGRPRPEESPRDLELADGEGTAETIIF
Kind of data set: In vitro [3H]AVP binding assay, membranes of 1321-N1 cells expressing human V1B receptor. To be noted: 1321-N1 cell membranes, read-out: EC50 of RO model (Ki value for human V1B receptor binding inhibition).

`CC(C)NC(=O)Cn1c(-c2cccc(Cl)c2)nn(-c2ccc(CCN3CCOCC3)cc2)c1=O` [THY1773]: the Ki (in general, the dissociation constant of the complex between target and ligand, obtained from inhibition or displacement) is 0.0801 µM in data set [1] and 0.00351 µM in data set [5]. For the same compound, the “CLint in liver microsomes” value in data set [2] was found to be 32.2 μL/min/mg protein. The “fm (fraction metabolized)” value in data set [3] (by CYP3A, ketoconazole 1 μmol/L) was found to be 0.914. Besides, in data set [3] (with ketoconazole 1 μmol/L, mean of duplicate), the CLint was 0.961 ^a μl/min/mg. Further, the “Occupancy of anterior pituitary V1B receptor after oral administration” value in data set [4] is listed as “dose‐dependently”.
